Results from ChEMBL document CHEMBL1201862, “PubChem BioAssay data set” (2004).
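Exposure lasted 48 hours, with cells grown in 96-well plates and compounds tested at five concentrations. GI50 is the concentration that inhibits growth by half.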 Active and inactive are the calls of the source. Rule as the data show it: active = GI50 up to about 1.1 µM and inactive = higher.

Assays:
Test in all cases: inhibition of tumour cell growth, NCI panel, 48 h
A498 = system: A498
A549 = system: A549
ACHN = system: ACHN
DU-145 = system: DU-145
Hs-578T = system: Hs-578T
K562 = system: K562
KM12 = system: KM12
M14 = system: M14
MDA-MB-231 = system: MDA-MB-231
MDA-MB-435 = system: MDA-MB-435
NCI-H522 = system: NCI-H522
OVCAR-3 = system: OVCAR-3
OVCAR-4 = system: OVCAR-4
OVCAR-8 = system: OVCAR-8
PC-3 = system: PC-3
SK-MEL-2 = system: SK-MEL-2
SR = system: SR
SW-620 = system: SW-620
UO-31 = system: UO-31
RXF 393 = system: RXF 393

Structure (SMILES)	GI50 (A498)	GI50 (A549)	GI50 (ACHN)	GI50 (DU-145)	GI50 (Hs-578T)	GI50 (K562)	GI50 (KM12)	GI50 (M14)	GI50 (MDA-MB-231)	GI50 (MDA-MB-435)	GI50 (NCI-H522)	GI50 (OVCAR-3)	GI50 (OVCAR-4)	GI50 (OVCAR-8)	GI50 (PC-3)	GI50 (SK-MEL-2)	GI50 (SR)	GI50 (SW-620)	GI50 (UO-31)	GI50 (RXF 393)
O=C(O)c1ccccc1/C=N\N=C1NCCCCN1	> 100 µM (inactive)	> 100 µM (inactive)	> 100 µM (inactive)	> 100 µM (inactive)	> 100 µM (inactive)	> 100 µM (inactive)	> 100 µM (inactive)	> 100 µM (inactive)	> 100 µM (inactive)	> 100 µM (inactive)	> 100 µM (inactive)	> 100 µM (inactive)	> 100 µM (inactive)	> 100 µM (inactive)	> 100 µM (inactive)	> 100 µM (inactive)	> 100 µM (inactive)	> 100 µM (inactive)	> 100 µM (inactive)	–
COc1ccc2nc3c([N+](=O)[O-])ccc(NCCCN(C)C)c3c(N)c2c1	–	1.49 µM (inactive)	1.14 µM (inactive)	1.67 µM (inactive)	2.78 µM (inactive)	0.41 µM (active)	1.51 µM (inactive)	1.9 µM (inactive)	1.28 µM (inactive)	1.77 µM (inactive)	0.474 µM (active)	1.49 µM (inactive)	1.5 µM (inactive)	1.75 µM (inactive)	1.4 µM (inactive)	2.39 µM (inactive)	0.721 µM (active)	0.405 µM (active)	2.14 µM (inactive)	1.29 µM (inactive)
Cc1c(Cl)c(S(N)(=O)=O)cc2c1N=CNS2(=O)=O	> 100 µM (inactive)	> 100 µM (inactive)	> 100 µM (inactive)	> 100 µM (inactive)	> 100 µM (inactive)	> 100 µM (inactive)	> 100 µM (inactive)	> 100 µM (inactive)	> 100 µM (inactive)	> 100 µM (inactive)	> 100 µM (inactive)	> 100 µM (inactive)	> 100 µM (inactive)	> 100 µM (inactive)	> 100 µM (inactive)	–	–	> 100 µM (inactive)	> 100 µM (inactive)	> 100 µM (inactive)
COc1ccc(NC(=S)N/N=C\c2ccc(NC(C)=O)cc2)cc1	–	> 100 µM (inactive)	> 100 µM (inactive)	> 100 µM (inactive)	> 100 µM (inactive)	–	> 100 µM (inactive)	> 100 µM (inactive)	> 100 µM (inactive)	> 100 µM (inactive)	> 100 µM (inactive)	> 100 µM (inactive)	> 100 µM (inactive)	–	> 100 µM (inactive)	> 100 µM (inactive)	14.2 µM (inactive)	> 100 µM (inactive)	> 100 µM (inactive)	–
